Measurements as given in US8258158B2 (Hoffmann-La Roche Inc., priority 2009, dated 2012).

What follows are molecules tested against T1, human HSL (Homo sapiens, UniProt Q05469) (assay: Human hormone-sensitive lipase (HSL) enzyme inhibition assay (colorimetric, DMPT substrate)). Details: human full length HSL-His6; 2,3-dimercapto-1-propanol tributyrate substrate; 37° C., 20 minutes; read-out: HSL hum IC50.
T1 construct: overlapping PCR to generate a full length human HSL ORF with a 3′-His6 tag; His6 (C); made in house; host or cells: High 5 insect cells (baculovirus, pFast-BAC)
T1 sequence (Q05469 1-1076): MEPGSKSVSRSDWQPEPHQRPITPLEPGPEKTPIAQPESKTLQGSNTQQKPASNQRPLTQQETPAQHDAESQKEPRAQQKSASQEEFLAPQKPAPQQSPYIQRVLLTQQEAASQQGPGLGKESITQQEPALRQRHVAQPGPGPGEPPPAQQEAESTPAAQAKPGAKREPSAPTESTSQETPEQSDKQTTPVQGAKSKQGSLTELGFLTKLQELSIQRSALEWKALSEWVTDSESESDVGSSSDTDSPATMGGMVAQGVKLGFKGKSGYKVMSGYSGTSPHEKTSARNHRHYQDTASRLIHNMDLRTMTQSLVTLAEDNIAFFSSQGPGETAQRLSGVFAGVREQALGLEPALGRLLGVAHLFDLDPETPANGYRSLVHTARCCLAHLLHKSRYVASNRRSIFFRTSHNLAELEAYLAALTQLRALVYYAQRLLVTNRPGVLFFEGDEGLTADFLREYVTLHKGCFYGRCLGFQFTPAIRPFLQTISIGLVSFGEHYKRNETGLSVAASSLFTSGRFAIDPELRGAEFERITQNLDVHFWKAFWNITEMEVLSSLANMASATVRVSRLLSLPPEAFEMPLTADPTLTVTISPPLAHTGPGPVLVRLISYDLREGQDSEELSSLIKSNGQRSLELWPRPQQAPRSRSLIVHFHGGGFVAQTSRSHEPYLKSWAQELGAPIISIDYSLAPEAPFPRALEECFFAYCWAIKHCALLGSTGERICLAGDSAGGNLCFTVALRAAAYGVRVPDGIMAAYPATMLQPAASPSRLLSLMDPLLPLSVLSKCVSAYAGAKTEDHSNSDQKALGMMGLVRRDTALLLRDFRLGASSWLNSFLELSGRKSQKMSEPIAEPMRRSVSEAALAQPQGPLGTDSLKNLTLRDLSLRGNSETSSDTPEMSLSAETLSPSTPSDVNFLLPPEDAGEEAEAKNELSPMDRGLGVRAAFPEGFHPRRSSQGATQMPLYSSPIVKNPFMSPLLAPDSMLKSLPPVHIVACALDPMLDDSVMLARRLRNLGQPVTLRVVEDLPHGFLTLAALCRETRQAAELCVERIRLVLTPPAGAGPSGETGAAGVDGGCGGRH
Type: biochemical
Protocol: Production of Human Full Length Hormone Sensitive Lipase-His^6:
1) Cloning: cDNA was prepared from commercial human brain polyA+ RNA and used as a template in overlapping PCR to generate a full length human HSL ORF with a 3′-His6 tag. This full length insert was cloned into the pFast-BAC vector and the DNA-sequence of several single clones was verified. DNA from a correct full length clone with the 3′His6 tag was used to transform the E. coli strain DH10BAC. Resulting bacmid DNA was used to generate a titered baculovirus stock for protein generation. The sequence of the encoded HSL conforms to Swissprot entry Q05469, with the additional C-terminal His6-tag.
2) Protein purification: Culture: 5.5 L, High 5 cells expressing human full length HSL-His^6, 48 hr., containing 25 μM E-64. Cell count: […], 90% viable. Cells were thawed. On ice, cells were suspended in Base Buffer containing 10% glycerol, 25 mM Tris-Cl, 300 mM NaCl, 10 mM imidazole, 10 mM 2-mercaptoethanol, 2 μg pepstatin/ml, 2 μg leupeptin/ml, 2 μg antipain/ml, pH 8.0 at 4° C. in a final volume of 475 ml with 3.75×10^7 cells/ml. […] was done at 3×30 sec., Lubrol PX was added to 0.2% final concentration followed by stirring for 15 min. at 4° C. and centrifugation at 25 k×g, 60 min., 4° C. Soluble proteins were mixed with 60 ml of pre-washed and equilibrated Ni-NTA Agarose (Qiagen 30210) followed by tumbling end-over-end, 45 min., 4° C., centrifugation 1000 rpm 5 min and letting resin settle 5 min. Supernatant was removed, the resin washed in the centrifuge vessel using 5 volumes of Base Buffer containing 0.2% Lubrol PX. Centrifugation was done again, then the supernatant discarded. The resin was poured onto a 0.8 μm membrane in a disposable filter unit (Nalge 450-0080), and washed with 5 volumes of Base Buffer containing 0.2% Lubrol PX. It was then washed with 30 volumes of Base Buffer containing 60 mM imidazole pH 7.5 at 4° C. The protein was eluated with 5 volumes of 25 mM Tris-Cl, 300 mM NaCl, 200 mM imidazole, 10 mM 2-mercaptoethanol, pH 7.5 at 4° C. by tumbling resin with buffer end-over-end, 30 min., 4° C. The resin was captured on a 0.2 μm membrane disposable filter unit (Millipore SCGP U02 RE) and the eluate collected in the reservoir. The eluate was concentrated using a 30 k MWCO centrifugal filter device (Sartorius Vivascience Vivacell 100, VC1022), to 20 ml. It was then dialyzed overnight at 4° C., two times against 2 L of 10% glycerol, 25 mM Tris-Cl, 300 mM NaCl, 0.2 mM EDTA, 0.2 mM DTT, pH 7.5 at 4° C. The protein was filtered using a 0.22 μm disposable filter unit (Millipore SCGP00525). The protein concentration was calculated from absorbance at 280 nm, using 280=0.67 cm-1 mg-1. Yield was 235 mg, total. The protein was stored at −80° C.
Human Hormone-Sensitive Lipase (HSL) Enzyme Inhibition Assay:
HSL enzyme activity was measured by a colorimetric assay using 2,3-dimercapto-1-propanol tributyrate (Aldrich, St. Louis, Mo.) as a substrate. Typically, 1.5 mM 2,3-dimercapto-1-propanol tributyrate (DMPT) in 100 mM MOPS, pH 7.2, 0.2 mg/ml fatty acid-free BSA was prepared by sonication at 4° C. to homogenous suspension. Test compounds (2 mM stock in DMSO) were diluted 3 fold in series in DMSO. Compound solutions were diluted 24 fold in 1.5 mM DMPT containing solution and 18 ul per well was added to 384-well microplates (Corning Costar). Twelve microliters per well of human HSL (15 ug/ml) was added and the reaction mixture was incubated at 37° C. for 20 minutes. Six microliters of 12 mM dithio-bis-(2-nitrobenzoic acid) (DTNB) in DMSO plus 1.2% SDS and 0.6% Triton X-100 were added and the mixture was incubated at room temperature for 15 minutes. Product production was monitored by reading absorbance at 405 nm on an Envision Reader (PerkinElmer Life and Analytical Sciences, Shelton, Conn.).

IC50 [nM] | Structure (SMILES)
550 | Cc1ccc(S(=O)(=O)N2CCC(F)(C(=O)Nc3ccc(OC(F)(F)F)cc3)CC2)cc1 [Example 18, 4-Fluoro-1-(toluene-4-sulfonyl)-piperidine-4-carboxylic acid (4-trifluoromethoxy-phenyl)-amide]
740 | Cc1ccc(S(=O)(=O)N2CCC(F)(C(=O)Nc3ccc(OC(C)C)cc3)CC2)cc1 [Example 19, 4-Fluoro-1-(toluene-4-sulfonyl)-piperidine-4-carboxylic acid (4-isopropoxy-phenyl)-amide]
170 | Cc1ccc(S(=O)(=O)N2CCC(C(=O)Nc3ccc(OCC4CC4)cc3)CC2)cc1 [Example 20, 1-(Toluene-4-sulfonyl)-piperidine-4-carboxylic acid (4-cyclopropylmethoxy-phenyl)-amide]
200 | CC(C)(C)CC(=O)N1CCC(C(=O)Nc2ccc(OC(F)(F)F)cc2)CC1 [Example 21, 1-(3,3-Dimethyl-butyryl)-piperidine-4-carboxylic acid (4-trifluoromethoxy-phenyl)-amide]
700 | Cc1ccc(S(=O)(=O)N2CCC(C(=O)Nc3ccc(CCO)cc3)CC2)cc1 [Example 22, 1-(Toluene-4-sulfonyl)-piperidine-4-carboxylic acid [4-(2-hydroxy-ethyl)-phenyl]-amide]
220 | O=C(Nc1ccc(OC(F)(F)F)cc1)C1(CO)CCN(S(=O)(=O)c2ccccc2)CC1 [Example 26, 1-Benzenesulfonyl-4-hydroxymethyl-piperidine-4-carboxylic acid (4-trifluoromethoxy-phenyl)-amide]
660 | O=C(Nc1ccc(OC(F)(F)F)cc1)C1(CO)CCN(S(=O)(=O)c2ccccc2Cl)CC1 [Example 28, 1-(2-Chloro-benzenesulfonyl)-4-hydroxymethyl-piperidine-4-carboxylic acid (4-trifluoromethoxy-phenyl)-amide]
280 | COc1ccc(S(=O)(=O)N2CCC(F)(C(=O)Nc3ccc(OC(F)(F)F)cc3)CC2)cc1 [Example 29, 4-Fluoro-1-(4-methoxy-benzenesulfonyl)-piperidine-4-carboxylic acid (4-trifluoromethoxy-phenyl)-amide]
180 | O=C(Nc1ccc(OC(F)(F)F)cc1)C1(F)CCN(S(=O)(=O)c2ccccc2Cl)CC1 [Example 30, 1-(2-Chloro-benzenesulfonyl)-4-fluoro-piperidine-4-carboxylic acid (4-trifluoromethoxy-phenyl)-amide]
480 | Cc1ccc(S(=O)(=O)N2CCC(C)(C(=O)Nc3ccc(OC(F)(F)F)cc3)CC2)cc1 [Example 31, 4-Methyl-1-(toluene-4-sulfonyl)-piperidine-4-carboxylic acid (4-trifluoromethoxy-phenyl)-amide]
130 | Cc1ccc(S(=O)(=O)N2CCC(C(=O)Nc3ccc(OC(C)(C)C(F)(F)F)cc3)CC2)cc1 [Example 33, 1-(Toluene-4-sulfonyl)-piperidine-4-carboxylic acid [4-(2,2,2-trifluoro-1,1-dimethyl-ethoxy)-phenyl]-amide]
1130 | CCn1nc(NC(=O)C2CCN(S(=O)(=O)c3ccccc3)CC2)cc1C(F)(F)F [Example 35, 1-Benzenesulfonyl-piperidine-4-carboxylic acid (1-ethyl-5-trifluoromethyl-1H-pyrazol-3-yl)-amide]
600 | O=C(Nc1ccc(OC(F)(F)F)cc1)C1CCN(S(=O)(=O)N2CCOCC2)CC1 [Example 37, 1-(Morpholine-4-sulfonyl)-piperidine-4-carboxylic acid (4-trifluoromethoxy-phenyl)-amide]
20 | O=C(Nc1ccc(OC(F)(F)F)cc1)C1CCN(S(=O)(=O)c2ccccc2Cl)CC1 [Example 38, 1-(2-Chloro-benzenesulfonyl)-piperidine-4-carboxylic acid (4-trifluoromethoxy-phenyl)-amide]
40 | CC(C)Oc1ccc(NC(=O)C2CCN(S(=O)(=O)c3ccccc3Cl)CC2)cc1 [Example 39, 1-(2-Chloro-benzenesulfonyl)-piperidine-4-carboxylic acid (4-isopropoxy-phenyl)-amide]
320 | Cc1ccc(S(=O)(=O)N2CCC(F)(C(=O)Nc3ccc(C(C)C)cc3)CC2)cc1 [Example 41, 4-Fluoro-1-(toluene-4-sulfonyl)-piperidine-4-carboxylic acid (4-isopropyl-phenyl)-amide]
40 | O=C(Nc1ccc(OC(F)(F)F)cc1)C1CCN(S(=O)(=O)c2ccccc2)CC1 [Example 46, 1-Benzenesulfonyl-piperidine-4-carboxylic acid (4-trifluoromethoxy-phenyl)-amide]
70 | CC(C)Oc1ccc(NC(=O)C2CCN(S(=O)(=O)c3ccccc3)CC2)cc1 [Example 47, 1-Benzenesulfonyl-piperidine-4-carboxylic acid (4-isopropoxy-phenyl)-amide]
40 | COc1ccc(S(=O)(=O)N2CCC(C(=O)Nc3ccc(OC(F)(F)F)cc3)CC2)cc1 [Example 48, 1-(4-Methoxy-benzenesulfonyl)-piperidine-4-carboxylic acid (4-trifluoromethoxy-phenyl)-amide]
90 | COc1ccc(S(=O)(=O)N2CCC(C(=O)Nc3ccc(OC(C)C)cc3)CC2)cc1 [Example 49, 1-(4-Methoxy-benzenesulfonyl)-piperidine-4-carboxylic acid (4-isopropoxy-phenyl)-amide]
330 | Cc1ccc(S(=O)(=O)N2CCC(CO)(C(=O)Nc3ccc(OC(F)(F)F)cc3)CC2)cc1 [Example 51]
